Source: PubChem BioAssay (NCI)
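How tested: cells in 96-well plates exposed to compound for 48 hours at five concentrations. TGI: total growth inhibition.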

Assays:
Experiment in all cases: NCI tumour cell line growth inhibition, 48 h
RXF 393 renal = tested on: RXF 393 renal
SK-MEL-5 melanoma = tested on: SK-MEL-5 melanoma
HOP-18 NSCLC = tested on: HOP-18 NSCLC
NCI-H460 lung = tested on: NCI-H460 lung
SK-MEL-28 melanoma = tested on: SK-MEL-28 melanoma
NCI-H23 lung = tested on: NCI-H23 lung
A498 renal = tested on: A498 renal
SW-620 colon = tested on: SW-620 colon
HCC-2998 colon = tested on: HCC-2998 colon
SR leukemia = tested on: SR leukemia
SF-268 CNS = tested on: SF-268 CNS
HT29 colon = tested on: HT29 colon
SK-MEL-2 melanoma = tested on: SK-MEL-2 melanoma
XF 498 CNS = tested on: XF 498 CNS
LXFL 529 NSCLC = tested on: LXFL 529 NSCLC
LOX IMVI melanoma = tested on: LOX IMVI melanoma
SN12C renal = tested on: SN12C renal
HL-60(TB) leukemia = tested on: HL-60(TB) leukemia
NCI-H522 lung = tested on: NCI-H522 lung
UACC-257 melanoma = tested on: UACC-257 melanoma
A549 NSCLC = tested on: A549 NSCLC
SK-OV-3 ovarian = tested on: SK-OV-3 ovarian
DLD-1 colon = tested on: DLD-1 colon
HCT-116 colon = tested on: HCT-116 colon
HOP-62 NSCLC = tested on: HOP-62 NSCLC
MALME-3M melanoma = tested on: MALME-3M melanoma
NCI-H226 lung = tested on: NCI-H226 lung
CAKI-1 renal = tested on: CAKI-1 renal
TK-10 renal = tested on: TK-10 renal
OVCAR-5 ovarian = tested on: OVCAR-5 ovarian
M14 melanoma = tested on: M14 melanoma
RPMI-8226 leukemia = tested on: RPMI-8226 leukemia
SF-295 CNS = tested on: SF-295 CNS
HOP-92 NSCLC = tested on: HOP-92 NSCLC
SNB-75 CNS = tested on: SNB-75 CNS
ACHN renal = tested on: ACHN renal
KM12 colon = tested on: KM12 colon
OVCAR-4 ovarian = tested on: OVCAR-4 ovarian
HCT-15 colon = tested on: HCT-15 colon
SNB-19 CNS = tested on: SNB-19 CNS
SNB-78 CNS = tested on: SNB-78 CNS
PC-3 prostate = tested on: PC-3 prostate
NCI/ADR-RES ovarian = tested on: NCI/ADR-RES ovarian
OVCAR-3 ovarian = tested on: OVCAR-3 ovarian
IGROV1 ovarian = tested on: IGROV1 ovarian
MCF7 breast = tested on: MCF7 breast
U251 CNS = tested on: U251 CNS
BT-549 breast = tested on: BT-549 breast
UO-31 renal = tested on: UO-31 renal
CCRF-CEM leukemia = tested on: CCRF-CEM leukemia
T-47D breast = tested on: T-47D breast
MDA-MB-231 breast = tested on: MDA-MB-231 breast
MDA-N = tested on: MDA-N
DU-145 prostate = tested on: DU-145 prostate
MOLT-4 leukemia = tested on: MOLT-4 leukemia
MDA-MB-435 = tested on: MDA-MB-435
COLO 205 colon = tested on: COLO 205 colon
UACC-62 melanoma = tested on: UACC-62 melanoma
K-562 leukemia = tested on: K-562 leukemia
HS 578T breast = tested on: HS 578T breast
786-0 renal = tested on: 786-0 renal
SF-539 CNS = tested on: SF-539 CNS
OVCAR-8 ovarian = tested on: OVCAR-8 ovarian
EKVX NSCLC = tested on: EKVX NSCLC

CN1NC(c2ccccc2)=C(C#N)C(=O)CC1c1ccc(Br)cc1 (stereo not given)
TGI (RXF 393 renal): > 100 µM
TGI (SK-MEL-5 melanoma): 57.7 µM
TGI (HOP-18 NSCLC): > 100 µM
TGI (NCI-H460 lung): > 100 µM
TGI (SK-MEL-28 melanoma): > 100 µM
TGI (NCI-H23 lung): > 100 µM
TGI (A498 renal): > 100 µM
TGI (SW-620 colon): > 100 µM
TGI (HCC-2998 colon): > 100 µM
TGI (SR leukemia): > 100 µM
TGI (SF-268 CNS): > 100 µM
TGI (HT29 colon): 75.6 µM
TGI (SK-MEL-2 melanoma): 70 µM
TGI (XF 498 CNS): 78.2 µM
TGI (LXFL 529 NSCLC): > 100 µM
TGI (LOX IMVI melanoma): > 100 µM
TGI (SN12C renal): > 100 µM
TGI (HL-60(TB) leukemia): 83 µM
TGI (NCI-H522 lung): 53.7 µM
TGI (UACC-257 melanoma): > 100 µM
TGI (A549 NSCLC): > 100 µM
TGI (SK-OV-3 ovarian): > 100 µM
TGI (DLD-1 colon): > 100 µM
TGI (HCT-116 colon): > 100 µM
TGI (HOP-62 NSCLC): 61 µM
TGI (MALME-3M melanoma): > 100 µM
TGI (NCI-H226 lung): 4.24 µM
TGI (CAKI-1 renal): > 100 µM
TGI (TK-10 renal): > 100 µM
TGI (OVCAR-5 ovarian): 73.7 µM
TGI (M14 melanoma): 45.8 µM
TGI (RPMI-8226 leukemia): > 100 µM
TGI (SF-295 CNS): 91.2 µM
TGI (HOP-92 NSCLC): > 100 µM
TGI (SNB-75 CNS): 46.9 µM
TGI (ACHN renal): > 100 µM
TGI (KM12 colon): > 100 µM
TGI (OVCAR-4 ovarian): > 100 µM
TGI (HCT-15 colon): > 100 µM
TGI (SNB-19 CNS): > 100 µM
TGI (SNB-78 CNS): > 100 µM

COc1ccc(C2C3=C(COC3=O)OC(C)(C)Oc3cc4c(cc32)OCO4)cc1OC (stereo not given)
TGI (PC-3 prostate): 72.4 µM
TGI (RXF 393 renal): 68.8 µM
TGI (SK-MEL-5 melanoma): > 74.3 µM
TGI (NCI/ADR-RES ovarian): 58.7 µM
TGI (OVCAR-3 ovarian): > 100 µM
TGI (IGROV1 ovarian): > 100 µM
TGI (MCF7 breast): > 90.9 µM
TGI (NCI-H460 lung): > 100 µM
TGI (U251 CNS): > 100 µM
TGI (SK-MEL-28 melanoma): > 100 µM
TGI (BT-549 breast): 99.5 µM
TGI (NCI-H23 lung): > 100 µM
TGI (A498 renal): 63.8 µM
TGI (SW-620 colon): > 100 µM
TGI (HCC-2998 colon): > 100 µM
TGI (SR leukemia): > 100 µM
TGI (SF-268 CNS): > 31.6 µM
TGI (HT29 colon): > 100 µM
TGI (UO-31 renal): > 100 µM
TGI (SK-MEL-2 melanoma): > 100 µM
TGI (CCRF-CEM leukemia): > 100 µM
TGI (T-47D breast): 96.9 µM
TGI (MDA-MB-231 breast): > 84.1 µM
TGI (LOX IMVI melanoma): > 100 µM
TGI (SN12C renal): > 100 µM
TGI (HL-60(TB) leukemia): > 87.9 µM
TGI (NCI-H522 lung): > 73.8 µM
TGI (UACC-257 melanoma): > 100 µM
TGI (A549 NSCLC): > 100 µM
TGI (SK-OV-3 ovarian): > 100 µM
TGI (MDA-N): 39.2 µM
TGI (DU-145 prostate): > 100 µM
TGI (MOLT-4 leukemia): > 100 µM
TGI (HCT-116 colon): > 92.3 µM
TGI (HOP-62 NSCLC): > 100 µM
TGI (MALME-3M melanoma): > 100 µM
TGI (MDA-MB-435): 41.3 µM
TGI (COLO 205 colon): 48.1 µM
TGI (NCI-H226 lung): > 100 µM
TGI (CAKI-1 renal): > 100 µM
TGI (UACC-62 melanoma): > 75.4 µM
TGI (TK-10 renal): > 100 µM
TGI (K-562 leukemia): > 95.7 µM
TGI (OVCAR-5 ovarian): > 100 µM
TGI (M14 melanoma): > 80.3 µM
TGI (RPMI-8226 leukemia): > 100 µM
TGI (HS 578T breast): > 100 µM
TGI (786-0 renal): > 100 µM
TGI (SF-295 CNS): 88.4 µM
TGI (HOP-92 NSCLC): > 73.8 µM
TGI (SNB-75 CNS): 24.8 µM
TGI (ACHN renal): > 100 µM
TGI (SF-539 CNS): 72.6 µM
TGI (OVCAR-8 ovarian): > 100 µM
TGI (KM12 colon): 67.2 µM
TGI (OVCAR-4 ovarian): > 100 µM
TGI (HCT-15 colon): > 100 µM
TGI (SNB-19 CNS): > 100 µM
TGI (EKVX NSCLC): > 89.8 µM
